Measured values published in patent US8017630B2 (priority 2004, dated 2011).
Where two headings read alike, the source gives them in different places.

Tests used:
5HT uptake = format: biochemical, rat
NA uptake = format: biochemical, rat

SMILES | melting point [°C] | 5HT uptake % (10) (5HT uptake; hydrochloride) [%] | NA uptake % (10) (NA uptake; hydrochloride) [%] | 5HT uptake % (10) (5HT uptake) [%] | NA uptake % (10) (NA uptake) [%]
CN(C)C1(c2ccccn2)CCC(CC(=O)NCCc2c[nH]c3ccccc23)CC1.Cl (centres unmarked) [Example 47, 2-(4-Dimethylamino-4-pyridin-2-ylcyclohexyl)-N-[2-(1H-indol-3-yl)ethyl]acetamide hydrochloride] | 150 to 153 | 46 | 63 | – | –
CN(C)C1(c2ccccn2)CCC(CC(=O)NCCc2c[nH]c3ccccc23)CC1.Cl (centres unmarked) [Example 48, 2-(4-Dimethylamino-4-pyridin-2-ylcyclohexyl)-N-[2-(1H-indol-3-yl)ethyl]acetamide hydrochloride] | – | 85 | 74 | – | –
CN(C)C1(c2ccccn2)CCC(CC(=O)NCCCc2ccccc2)CC1.Cl (centres unmarked) [Example 49, 2-(4-Dimethylamino-4-pyridin-2-ylcyclohexyl)-N-(3-phenylpropyl)acetamide hydrochloride] | 218 to 220 | – | – | 32 | 94
